From patent US20240391871A1, “SUBSTITUTED HYDROXYMETHYL PYRROLIDINES AND MEDICAL USES THEREOF” (ATROGI AB, priority 2021, published 2024)
Counter-ions that a name gives are not always drawn.

Legend:
L6-myotubes = assay: Glucose uptake (3H-2-deoxyglucose) in differentiated L6-myotubes; type: cell-based; conditions: compound 1×10^−5 M; for Emax at 10 µM: read-out: Biological example 1: glucose uptake, activity compared to that of isoproterenol
Protocol: (§1) L6-myoblasts were grown in Dulbecco's Modified Eagle's Medium (DMEM) containing 1 g/L glucose supplemented with 10% fetal bovine serum, 2 mM L-Glutamine, 50 U/mL penicillin, 50 μg/mL streptomycin and 10 mM HEPES. Cells were plated at 1×10^5 cells per mL in 24-well plates. After reaching 90% confluence the cells were grown in medium containing 2% FBS for 7 days where upon cells differentiated into myotubes.
Differentiated L6-myotubes were serum-starved overnight in medium containing 0.5% fatty-acid free BSA and stimulated with an agonist, with a final concentration of 1×10^−5 M. After 1 h 40 min the cells were washed with warm glucose free medium or PBS twice and another portion of agonist was added to the glucose free medium. After 20 min the cells were exposed to 50 nM ^3H-2-deoxyglucose for 10 min before washed with ice cold glucose free medium or PBS three times and lysed with 0.2 M NaOH, 400 μL/well, for 1 h at 60° C. The cell lysate was mixed with 4 mL scintillation buffer (Emulsifier Safe, Perkin Elmer) and the radioactivity was detected in a β-counter (Tri-Carb 4810TR, Perkin Elmer). The activity for each compound is compared to that of isoproterenol.

[1] = test system: Intracellular cAMP levels; assay: Measurement of intracellular cAMP levels in differentiated L6 cells; type: cell-based; conditions: compound 1×10^−5 M, 15 min; for Emax at 10 µM: Rattus norvegicus, L6, 0.25 h, read-out: Biological example 2: intracellular cAMP levels, activity compared to that of isoproterenol
Protocol: as §1
Differentiated cells were serum-starved overnight and stimulated with an agonist, final concentration 1×10^−5 M, for 15 min in stimulation buffer (HBSS supplemented with 1% BSA, 5 mM HEPES and 1 mM IBMX, pH 7.4). The medium was aspirated and 100 μL of 95% EtOH was added to each well of the 24-well plate and cells were kept at −20° C. overnight. The EtOH was allowed to evaporate and 500 μL of lysis buffer (1% BSA, 5 mM HEPES and 0.3% Tween-20, pH 7.4) was added to each well. The plate was kept at −80° C. for 30 min and then at −20° C. until the day of detection when the samples were thawed. Intracellular cAMP levels were detected using an alpha screen cAMP kit (6760635D from Perkin Elmer). The activity for each compound is compared to that of isoproterenol.

Q: With CO[C@H]1CC[C@H](C[C@H]2CC[C@H]([C@@H](O)c3cccc(F)c3)N2)CC1.Cl [Example 4, (S)-(3-Fluorophenyl)((2R,5R)-5-(((1r,4R)-4-methoxycyclohexyl)-methyl) -pyrrolidin-2-yl)methanol hydrochloride] as the molecule, how does the “Biological example 1: glucose uptake, activity compared to that of isoproterenol” value (L6-myotubes) read?
A: + (between 50 and 25%)

Q: And the “Biological example 2: intracellular cAMP levels, activity compared to that of isoproterenol” value [1]?
A: − (less than 25%)

Q: CO[C@H]1CC[C@H](C[C@@H]2CC[C@H]([C@H](O)c3ccccc3F)N2)CC1.Cl [Example 5, (R)-(2-Fluorophenyl)((2R,5S)-5-(((1r,4S)-4-methoxycyclohexyl)methyl-(pyrrolidin-2-yl)methanol hydrochloride] was tested. Which Emax at 10 µM (L6-myotubes) did it give?
A: > 75%

Q: And the Emax at 10 µM [1]?
A: < 25%

Q: Which results are given for CO[C@H]1CC[C@H](C[C@@H]2CC[C@H]([C@@H](O)c3ccccc3F)N2)CC1 [Example 6, (S)-(2-Fluorophenyl)((2R,5S)-5-(((1r,4S)-4-methoxycyclohexyl)methyl) -pyrrolidin-2-yl)methanol hydrochloride]?
A: Emax at 10 µM (L6-myotubes): 25 to 50%; Emax at 10 µM [1]: < 25%

Q: Which Emax at 10 µM (L6-myotubes) does the source give for CO[C@H]1CC[C@H](C[C@H]2CC[C@H]([C@@H](O)c3ccccc3F)N2)CC1 [Example 8, (S)-(2-Fluorophenyl)((2R,5R)-5-(((1r,4S)-4-methoxycyclohexyl)methyl) -pyrrolidin-2-yl)methanol hydrochloride] here?
A: 50 to 75%

Q: And the Emax at 10 µM [1]?
A: < 25%

Q: What does the source list for CO[C@H]1CC[C@H](C[C@@H]2CC[C@H]([C@H](O)c3cncc(F)c3)N2)CC1 [Example 9, (R)-(5-Fluoropyridin-3-yl)(2R,5S)-5-(((1r,4S)-4-methoxycyclohexyl)methyl) -pyrrolidin-2-yl)methanol dihydrochloride]?
A: Emax at 10 µM (L6-myotubes): 25 to 50%; Emax at 10 µM [1]: < 25%

Q: How did the Emax at 10 µM (L6-myotubes) turn out when CO[C@H]1CC[C@H](C[C@@H]2CC[C@H]([C@@H](O)c3cncc(F)c3)N2)CC1 [Example 10, (S)-(5-Fluoropyridin-3-yl)((2R,5S)-5-(((1r,4S)-4-methoxycyclohexyl) -methyl)pyrrolidin-2-yl)methanol dihydrochloride] was run?
A: 25 to 50%

Q: What about the Emax at 10 µM [1] of the same molecule?
A: < 25%

Q: CO[C@H]1CC[C@H](C[C@H]2CC[C@H]([C@H](O)c3cncc(F)c3)N2)CC1 [Example 11, (R)-(5-Fluoropyridin-3-yl)((2R,5R)-5-(((1r,4S)-4-methoxycyclohexyl) -methyl)pyrrolidin-2-yl)methanol dihydrochloride] was tested. Which Emax at 10 µM (L6-myotubes) did it give?
A: > 75%

Q: What about the Emax at 10 µM [1] of the same molecule?
A: < 25%

Q: CO[C@H]1CC[C@H](C[C@H]2CC[C@H]([C@@H](O)c3cncc(F)c3)N2)CC1 [Example 12, (S)-(5-Fluoropyridin-3-yl)(2R,5R)-5-(((1r,4S)-4-methoxycyclohexyl) -methyl)pyrrolidin-2-yl)methanol dihydrochloride] was tested. Which Emax at 10 µM (L6-myotubes) did it give?
A: 25 to 50%

Q: What about the Emax at 10 µM [1] of the same molecule?
A: < 25%

Q: How did the Emax at 10 µM (L6-myotubes) turn out when COc1ccc(C[C@@H]2CC[C@H]([C@H](O)c3cccc(F)c3)N2)cc1 [Example 13, (R)-(3-Fluorophenyl)((2R,5S)-5-(4-methoxybenzyl)pyrrolidin-2-yl)methanol] was run?
A: > 75%

Q: And the Emax at 10 µM [1]?
A: < 25%

Q: Which results are given for COc1ccc(C[C@@H]2CC[C@H]([C@@H](O)c3cccc(F)c3)N2)cc1 [Example 14, (S)-(3-Fluorophenyl)((2R,5S)-5-(4-methoxybenzyl)pyrrolidin-2-yl)methanol hydrochloride]?
A: Emax at 10 µM (L6-myotubes): > 75%; Emax at 10 µM [1]: < 25%

Q: Which Emax at 10 µM (L6-myotubes) does the source give for COc1ccc(C[C@H]2CC[C@H]([C@H](O)c3cccc(F)c3)N2)cc1 [Example 15, (R)-(3-Fluorophenyl)((2R,5R)-5-(4-methoxybenzyl)pyrrolidin-2-yl)methanol] here?
A: > 75%

Q: What about the Emax at 10 µM [1] of the same molecule?
A: < 25%

Q: Which results are given for COc1ccc(C[C@H]2CC[C@H]([C@@H](O)c3cccc(F)c3)N2)cc1 [Example 16, (S)-(3-Fluorophenyl)((2R,5R)-5-(4-methoxybenzyl)pyrrolidin-2-yl)methanol]?
A: Emax at 10 µM (L6-myotubes): 50 to 75%; Emax at 10 µM [1]: < 25%

Q: How did the Emax at 10 µM (L6-myotubes) turn out when CO[C@H]1CC[C@H](C[C@@]2(C)CC[C@H]([C@H](O)c3cccc(F)c3)N2)CC1 [Example 17, (R)-(3-Fluorophenyl)((2R,5R)-5-(((1r,4R)-4-methoxycyclohexyl)methyl)-5-methylpyrrolidin-2-yl)methanol] was run?
A: > 75%

Q: What about the Emax at 10 µM [1] of the same molecule?
A: 25 to 50%

Q: Which Emax at 10 µM (L6-myotubes) does the source give for CO[C@H]1CC[C@H](C[C@@]2(C)CC[C@H]([C@@H](O)c3cccc(F)c3)N2)CC1 [Example 18, (S)-(3-Fluorophenyl)(2R,5R)-5-(((1r,4R)-4-methoxycyclohexyl)methyl)-5-methylpyrrolidin-2-yl)methanol hydrochloride] here?
A: 50 to 75%

Q: What about the Emax at 10 µM [1] of the same molecule?
A: < 25%

Q: Which Emax at 10 µM (L6-myotubes) does the source give for COc1ccc(C[C@@]2(C)CC[C@H]([C@H](O)c3cccc(F)c3)N2)cc1 [Example 19, (R)-(3-Fluorophenyl)((2R,5R)-5-(4-methoxybenzyl)-5-methylpyrrolidin-2-yl)methanol hydrochloride] here?
A: > 75%

Q: And the Emax at 10 µM [1]?
A: 25 to 50%

Q: With COc1ccc(C[C@@]2(C)CC[C@H]([C@@H](O)c3cccc(F)c3)N2)cc1 [Example 20, (S)-(3-Fluorophenyl)((2R,5R)-5-(4-methoxybenzyl)-5-methylpyrrolidin-2-yl)methanol hydrochloride] as the molecule, how does the Emax at 10 µM (L6-myotubes) read?
A: > 75%

Q: And the Emax at 10 µM [1]?
A: < 25%

Q: COc1ccc(C[C@@H]2CC[C@H]([C@H](O)c3cncc(F)c3)N2)cc1 [Example 21, (R)-(5-Fluoropyridin-3-yl)((2R,5S)-5-(4-methoxybenzyl)pyrrolidin-2-yl) -methanol dihydrochloride] was tested. Which Emax at 10 µM (L6-myotubes) did it give?
A: > 75%

Q: And the Emax at 10 µM [1]?
A: < 25%

Q: How did the Emax at 10 µM (L6-myotubes) turn out when COc1ccc(C[C@@H]2CC[C@H]([C@@H](O)c3cncc(F)c3)N2)cc1 [Example 22, (S)-(5-Fluoropyridin-3-yl)((2R,5S)-5-(4-methoxybenzyl)pyrrolidin-2-yl)methanol dihydrochloride] was run?
A: > 75%

Q: What about the Emax at 10 µM [1] of the same molecule?
A: < 25%

Q: What does the source list for COc1ccc(C[C@H]2CC[C@H]([C@H](O)c3cncc(F)c3)N2)cc1 [Example 23, (R)-(5-Fluoropyridin-3-yl)(2R,5R)-5-(4-methoxybenzyl)pyrrolidin-2-yl)methanol dihydrochloride]?
A: Emax at 10 µM (L6-myotubes): > 75%; Emax at 10 µM [1]: < 25%

Q: What does the source list for COc1ccc(C[C@H]2CC[C@H]([C@@H](O)c3cncc(F)c3)N2)cc1 [Example 24, (S)-(5-Fluoropyridin-3-yl)((2R,5R)-5-(4-methoxybenzyl)pyrrolidin-2-yl)methanol dihydrochloride]?
A: Emax at 10 µM (L6-myotubes): > 75%; Emax at 10 µM [1]: < 25%

Q: How did the Emax at 10 µM (L6-myotubes) turn out when O[C@H](c1cccc(F)c1)[C@H]1CC[C@@H](Cc2ccc(Cl)cc2)N1 [Example 25, (R)-((2R,5S)-5-(4-Chlorobenzyl)pyrrolidin-2-yl)(3-fluorophenyl)methanol hydrochloride] was run?
A: > 75%

Q: And the Emax at 10 µM [1]?
A: < 25%

Q: O[C@@H](c1cccc(F)c1)[C@H]1CC[C@@H](Cc2ccc(Cl)cc2)N1 [Example 26, (S)-((2R,5S)-5-(4-Chlorobenzyl)pyrrolidin-2-yl)(3-fluorophenyl)methanol hydrochloride] was tested. Which Emax at 10 µM (L6-myotubes) did it give?
A: 50 to 75%

Q: And the Emax at 10 µM [1]?
A: < 25%

Q: Which results are given for O[C@H](c1cccc(F)c1)[C@H]1CC[C@H](Cc2ccc(Cl)cc2)N1 [Example 27, (R)-((2R,5R)-5-(4-Chlorobenzyl)pyrrolidin-2-yl)(3-fluorophenyl)methanol hydrochloride]?
A: Emax at 10 µM (L6-myotubes): > 75%; Emax at 10 µM [1]: < 25%

Q: Which results are given for O[C@@H](c1cccc(F)c1)[C@H]1CC[C@H](Cc2ccc(Cl)cc2)N1 [Example 28, (S)-((2R,5R)-5-(4-Chlorobenzyl)pyrrolidin-2-yl)(3-fluorophenyl)methanol hydrochloride]?
A: Emax at 10 µM (L6-myotubes): 50 to 75%; Emax at 10 µM [1]: < 25%

Q: Which Emax at 10 µM (L6-myotubes) does the source give for O[C@H](c1cncc(F)c1)[C@H]1CC[C@@H](Cc2ccc(Cl)cc2)N1 [Example 29, (R)-((2R,5S)-5-(4-Chlorobenzyl)pyrrolidin-2-yl)(5-fluoropyridin-3-yl) -methanol dihydrochloride] here?
A: > 75%

Q: What about the Emax at 10 µM [1] of the same molecule?
A: < 25%

Q: How did the Emax at 10 µM (L6-myotubes) turn out when O[C@@H](c1cncc(F)c1)[C@H]1CC[C@@H](Cc2ccc(Cl)cc2)N1 [Example 30, (S)-(2R,5S)-5-(4-Chlorobenzyl)pyrrolidin-2-yl)(5-fluoropyridin-3-yl) -methanol dihydrochloride] was run?
A: 50 to 75%

Q: And the Emax at 10 µM [1]?
A: < 25%

Q: Which results are given for O[C@H](c1cncc(F)c1)[C@H]1CC[C@H](Cc2ccc(Cl)cc2)N1 [Example 31, (R)-((2R,5R)-5-(4-Chlorobenzyl)pyrrolidin-2-yl)(5-fluoropyridin-3-yl) -methanol dihydrochloride]?
A: Emax at 10 µM (L6-myotubes): > 75%; Emax at 10 µM [1]: < 25%
